{
  "source": "patent US12226380B2",
  "about": "“Method of regulating immunity in the intestines” (Monell Chemical Senses Center, priority 2016, dated 2025)",
  "key": {"[1]": {"test_system": "DSS-induced colitis", "details": "DSS-treated mice, 100 mM succinate in drinking water vs plain water; anticipated", "method": "Mice are treated with DSS to induce intestinal damage. Mice are then provided with a drinking sprout containing 100 mM succinate or plain water. Gut tissue is collected and evaluated for the clinical and histological changes."}, "[2]": {"test_system": "N. brasiliensis or Helgomosomoides polygyrus", "details": "mice with free access to 100 mM succinate, infected with intestinal parasites, up to two weeks post-infection; anticipated", "method": "For treatment of parasitic infection, mice are provided with free access to a drinking sprout containing 100 mM succinate (or other SucnR1 agonist) or plain water. Mice are then infected with intestinal parasites, such as N. brasiliensis or Helgomosomoides polygyrus. Mice are examined for the presence of worm (worm burden) in the small intestine, caecum, as well as feces for up to two weeks post-infection.\nSimilarly, the feces is examined for the presence of parasitic eggs."}},
  "data": [
    {"compound": "O=C(O)CCC(=O)O", "note": "[succinate]", "values": [
      {"measurement": "clinical outcome (clinical and histological changes of gut tissue)", "setting": "[1]", "value": "better clinical outcome"},
      {"measurement": "expelling of helminths (worm burden)", "setting": "[2]", "value": "expedited expelling of helminths from the body"}
    ]}
  ]
}
